In the supplement of paper PMC10307832:

Columns and labels:
Test in all cases: relative viability (nuclei count vs DMSO), 5 days (fraction); higher = more cells survive
[1] = tested on: NCI-H1437
Procedure, shortened: (§1)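 Lung cancer cell lines were pin-tool dosed in 1536-well plates on the day after seeding, with either a lone drug or a fixed anchor-drug dose plus five library-drug doses (not always all listed) in √10 steps. Nuclei were counted on 4× images after 5 days. Relative viability is the ratio of treated-well to vehicle-well nuclei counts, with each value a median of duplicate plates.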

[2] = tested on: NCI-H1395
Procedure, shortened: as §1

[3] = tested on: A-427
Procedure, shortened: as §1

[4] = tested on: NCI-H1755
Procedure, shortened: as §1

[5] = tested on: LCLC-103H
Procedure, shortened: as §1

[6] = tested on: COR-L 105
Procedure, shortened: as §1

[7] = tested on: HARA
Procedure, shortened: as §1

[8] = tested on: HOP-62
Procedure, shortened: as §1

[9] = tested on: NCI-H727
Procedure, shortened: as §1

[10] = tested on: SK-LU-1
Procedure, shortened: as §1

[11] = tested on: NCI-H1915
Procedure, shortened: as §1

Nc1ccn([C@@H]2O[C@H](CO)[C@@H](O)[C@@H]2O)c(=O)n1 [Cytarabine] + CS(=O)(=O)N1CCN(Cc2cc3nc(-c4cccc5[nH]ncc45)nc(N4CCOCC4)c3s2)CC1 [Pictilisib] (partner 1 µM)
relative viability ([1]; first compound 0.05 µM): 0.252 | relative viability ([1]; first compound 0.1581 µM): 0.112 | relative viability ([1]; first compound 0.5 µM): 0.11 | relative viability ([2]; first compound 0.005 µM): 0.616 | relative viability ([2]; first compound 0.01581 µM): 0.564 | relative viability ([2]; first compound 0.05 µM): 0.391 | relative viability ([2]; first compound 0.1581 µM): 0.365 | relative viability ([2]; first compound 0.5 µM): 0.316 | relative viability ([3]; first compound 0.005 µM): 0.576 | relative viability ([3]; first compound 0.01581 µM): 0.419 | relative viability ([3]; first compound 0.05 µM): 0.314 | relative viability ([3]; first compound 0.1581 µM): 0.178 | relative viability ([3]; first compound 0.5 µM): 0.147 | relative viability ([4]; first compound 0.005 µM): 0.378 | relative viability ([4]; first compound 0.01581 µM): 0.417 | relative viability ([4]; first compound 0.05 µM): 0.359 | relative viability ([4]; first compound 0.1581 µM): 0.223 | relative viability ([4]; first compound 0.5 µM): 0.191 | relative viability ([5]; first compound 0.005 µM): 0.614 | relative viability ([5]; first compound 0.01581 µM): 0.624 | relative viability ([5]; first compound 0.05 µM): 0.565 | relative viability ([5]; first compound 0.1581 µM): 0.513 | relative viability ([5]; first compound 0.5 µM): 0.617 | relative viability ([6]; first compound 0.005 µM): 0.32 | relative viability ([6]; first compound 0.01581 µM): 0.361 | relative viability ([6]; first compound 0.05 µM): 0.312 | relative viability ([6]; first compound 0.1581 µM): 0.311 | relative viability ([6]; first compound 0.5 µM): 0.242 | relative viability ([7]; first compound 0.005 µM): 0.316 | relative viability ([7]; first compound 0.01581 µM): 0.368 | relative viability ([7]; first compound 0.05 µM): 0.163 | relative viability ([7]; first compound 0.1581 µM): 0.106 | relative viability ([7]; first compound 0.5 µM): 0.117 | relative viability ([8]; first compound 0.005 µM): 0.741 | relative viability ([8]; first compound 0.01581 µM): 0.469 | relative viability ([8]; first compound 0.05 µM): 0.315 | relative viability ([8]; first compound 0.1581 µM): 0.118 | relative viability ([8]; first compound 0.5 µM): 0.0794 | relative viability ([9]; first compound 0.005 µM): 0.45 | relative viability ([9]; first compound 0.01581 µM): 0.237 | relative viability ([9]; first compound 0.05 µM): 0.211 | relative viability ([9]; first compound 0.1581 µM): 0.222 | relative viability ([9]; first compound 0.5 µM): 0.203 | relative viability ([10]; first compound 0.005 µM): 0.519 | relative viability ([10]; first compound 0.01581 µM): 0.515 | relative viability ([10]; first compound 0.05 µM): 0.333 | relative viability ([10]; first compound 0.1581 µM): 0.216 | relative viability ([10]; first compound 0.5 µM): 0.216 | relative viability ([11]; first compound 0.005 µM): 0.866 | relative viability ([11]; first compound 0.01581 µM): 0.853 | relative viability ([11]; first compound 0.05 µM): 0.589 | relative viability ([11]; first compound 0.1581 µM): 0.274 | relative viability ([11]; first compound 0.5 µM): 0.233
